Reference: US20160297763A1, “Heteroaryl hydroxamic acid derivatives and their use in the treatment, amelioration or prevention of a viral disease” (priority 2011, published 2016)
Structures can show the parent of a compound that is named as a salt.

SMILES | melting point [°C]
Cl.O=C(c1cc(NS(=O)(=O)Cc2cccc(C(F)(F)F)c2)ccn1)N(O)Cc1ccccc1 | 178 to 182
O=C(c1cc(C2=CCNCC2)ccn1)N(O)Cc1ccccc1 (as salt: hydrochloride) | 140 to 150
CC(C)c1cc2c(=O)[nH]c(N)nc2s1 | 347 to 349
Cc1c(-c2ccccc2)sc2nc(NCCNC(=O)CCCN3CCN(C)CC3)[nH]c(=O)c12 | 192 to 196
NC(=O)c1cccc(-c2ccnc(C(=O)N(O)Cc3ccccc3)c2)c1 | 158 to 162
Cl.O=C(c1cc(N2CCC(F)(F)C2)ccn1)N(O)Cc1ccccc1 | 162 to 166
O=C(c1cc(-c2cccc(CO)c2)ccn1)N(O)Cc1ccccc1 | 150 to 155
Cl.O=C(c1cc(N2CCC(F)(F)CC2)ccn1)N(O)Cc1ccccc1 | 90 to 95
CC(C)c1cccc(-c2ccc(C(=O)N(O)CCc3ccccc3)nc2)c1 | 110 to 115
Cl.O=C(NO)c1cc(NS(=O)(=O)Cc2cccc(C(F)(F)F)c2)ccn1 | 201 to 204
O=C(c1ccc(N2CCCC2)cn1)N(O)Cc1ccccc1 | 115 to 120
Cc1c(Cc2ccc(Cl)cc2)sc2nc(N)[nH]c(=O)c12 | 300 to 320
Cl.O=C(NO)c1cc(NS(=O)(=O)Cc2ccccc2Cl)ccn1 | 215 to 220
Cc1c(C2=CCNCC2)sc2nc(N)[nH]c(=O)c12 | 290 to 310
Cc1c(-c2ccc(F)c(C(F)(F)F)c2)sc2nc(N)[nH]c(=O)c12 | 310 to 330
Cc1c(-c2ccc(Cl)nc2)sc2nc(N)[nH]c(=O)c12 | 230 to 250
Cc1c(-c2cc(CN(C)C)ccc2F)sc2nc(N)[nH]c(=O)c12 | 230 to 250
Cl.O=C(NO)c1cc(NS(=O)(=O)Cc2cccc3cccnc23)ccn1 | 220 to 228
CC(c1ccccc1)c1cc2c(=O)[nH]c(N)nc2s1 (stereo not shown) | 260 to 270
Cl.O=C(c1cc(NS(=O)(=O)Cc2cc(Cl)cc(Cl)c2)ccn1)N(O)Cc1ccccc1 | 189 to 194

SMILES | melting point [°C]
Cc1c(-c2cccc(CN(C)C)c2)sc2nc(N)[nH]c(=O)c12 | 207 to 212
CC(C)(C)OC(=O)NC1CCN(c2ccnc(C(=O)N(O)Cc3ccccc3)c2)CC1 | 135 to 140
O=C(NO)c1ccc(N2CCCC2)cn1 | 220 to 225
O=C(c1cc(-c2ccccc2)ccn1)N(O)Cc1ccc(F)cc1 | 135 to 140
Nc1nc2sc(Cc3ccccc3)cc2c(=O)[nH]1 | 294 to 296
O=C(c1cc(-c2ccc(Cl)c(Cl)c2)ccn1)N(O)Cc1ccccc1 | 125 to 130
O=C(NOCc1ccccc1)c1ccc(-c2ccccc2)cn1 | 155 to 160
Cc1sc2nc(N)[nH]c(=O)c2c1-c1ccc(F)cc1 | 360 to 362
Cc1cccc(-c2ccc(C(=O)N(O)Cc3ccccc3)nc2)c1 | 139 to 140
O=C(c1cc(-c2ccccc2)ccn1)N(O)Cc1ccccc1 | 160 to 165
Cc1c(-c2ccccc2)sc2nc(Nc3ccccc3)[nH]c(=O)c12 | 270 to 290
O=C(c1cc(N2CCC(N3CCCC3)CC2)ccn1)N(O)Cc1ccccc1 | 135 to 140
Cc1c(-c2ccc(F)nc2F)sc2nc(N)[nH]c(=O)c12 | 330 to 335
Cc1c(-c2ccccc2)sc2nc(NCCNC(=O)CCN3CCN(C)CC3)[nH]c(=O)c12 | 235 to 245
Cc1c(-c2ccc(Cl)c(F)c2)sc2nc(N)[nH]c(=O)c12 | 350 to 370
Cc1c(-c2ccccc2)sc2nc(N3CCOCC3)[nH]c(=O)c12 | 300 to 320
Cl.O=C(NO)c1cc(NS(=O)(=O)Cc2ccc(Cl)c(Cl)c2)ccn1 | 228 to 238
CCONC(=O)c1cc(NCCCc2cccc(Cl)c2)ccn1 | 100 to 105
O=C(c1cc(N2CCCC(F)(F)C2)ccn1)N(O)Cc1ccccc1 | 140 to 145
O=C(NOCc1ccccc1)c1ccc(N2CCCC2)cn1 | 165 to 170
